Experimental data published in patent US20160046570A1, “N-ACYLOXYSULFONAMIDE AND N-HYDROXY-N-ACYLSULFONAMIDE DERIVATIVES” (The Johns Hopkins University, priority 2009, published 2016).

Assays:
[1] = HNO production via N2O quantification (GC headspace), PBS buffer pH 7.4; type: physicochemical; conditions: pH 7.4, 37° C. under argon, relative to Angeli's salt
Description: (§1) Nitrous oxide is produced via the dimerization and dehydration of HNO, and is the most common marker for HNO production (Fukuto, J. M. et al., Chem. Res. Toxicol. 2005, 18, 790-801).
(§2) The ability of compounds to donate HNO is assessed. N2O results are reported relative to Angeli's salt. All decompositions are carried out at 37° C. under argon.

esterase = assay: HNO production via N2O quantification (GC headspace), PBS buffer pH 7.4 with added esterase; type: in vitro ADME; conditions: pH 7.4 with 2-4 mg added esterase, 37° C. under argon, relative to Angeli's salt, N2O measured at 1 hr
Description: as §1, §2

SMILES | % N2O pH 7.4 ([1]; N2O measured at 5 hr) | % N2O esterase (esterase) | % N2O pH 7.4 ([1]; no measurement time printed) [%]
CC(=O)ONS(=O)(=O)c1ccccc1Br [Compound 2, N-(acetyloxy)-2-bromobenzenesulfonamide] | <3 (5 hr) % | 53 (1 hr) % | –
CC(=O)ONS(=O)(=O)c1c(Cl)cccc1Cl [Compound 3, N-acetyloxy-2,6-dichlorobenzenesulfonamide] | <3 (5 hr) % | 56 (1 hr) % | –
O=C(c1ccccc1)N(O)S(=O)(=O)c1ccccc1 [Compound 15, N-hydroxy-N-benzoyl- benzenesulfonamide] | – | – | 19
CC(C)(C)C(=O)N(O)S(=O)(=O)c1c(Cl)cccc1Cl [Compound 16, N-hydroxy-N-trimethylacetyl-2,6-dichlorobenzenesulfonamide] | – | – | 41
